Reference: publication PMC4866733 (PLoS Genetics, 2016)

How the values were obtained:
GacSH1 = molecular target: T1, GacSH1 (Pseudomonas aeruginosa, UniProt G3XD98); conditions: 0.1 mM ATP, 5 mM MgCl2, 50 mM KCl, 50 mM Tris-HCl pH 7.6, 1 mM DTT, room temperature, 20 min; GacSD1 present; labelled compound
T1 construct: gene gacS

LadSH1D1 = molecular target: T2, LadSH1D1 (Pseudomonas aeruginosa, UniProt Q9HX42); conditions: 0.1 mM ATP, 5 mM MgCl2, 50 mM KCl, 50 mM Tris-HCl pH 7.6, 1 mM DTT, room temperature, 20 min; labelled compound; phosphoryl transfer to H428
T2 construct: gene ladS
T2 sequence (Q9HX42 entry or part of it): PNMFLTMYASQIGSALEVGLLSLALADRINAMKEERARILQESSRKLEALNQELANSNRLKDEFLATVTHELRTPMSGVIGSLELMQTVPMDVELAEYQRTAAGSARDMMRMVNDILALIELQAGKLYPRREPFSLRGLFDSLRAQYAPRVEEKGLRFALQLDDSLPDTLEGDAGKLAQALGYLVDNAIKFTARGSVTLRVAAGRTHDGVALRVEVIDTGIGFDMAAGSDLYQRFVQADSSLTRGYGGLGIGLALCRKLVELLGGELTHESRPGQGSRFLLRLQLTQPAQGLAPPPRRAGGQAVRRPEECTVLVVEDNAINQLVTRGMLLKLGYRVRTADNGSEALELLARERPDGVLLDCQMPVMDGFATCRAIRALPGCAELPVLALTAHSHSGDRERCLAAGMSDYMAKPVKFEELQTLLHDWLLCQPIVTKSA

T1 sequence (G3XD98 entry or part of it): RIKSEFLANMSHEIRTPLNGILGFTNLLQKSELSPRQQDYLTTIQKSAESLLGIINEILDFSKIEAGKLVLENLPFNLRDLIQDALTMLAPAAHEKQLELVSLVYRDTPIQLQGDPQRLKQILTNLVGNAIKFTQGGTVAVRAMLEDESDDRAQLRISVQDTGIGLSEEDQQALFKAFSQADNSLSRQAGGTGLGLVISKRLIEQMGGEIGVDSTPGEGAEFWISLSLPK

Nc1ncnc2c1ncn2[C@@H]1O[C@H](COP(=O)(O)OP(=O)(O)OP(=O)(O)O)[C@@H](O)[C@H]1O [[γ-^32P]ATP]
autophosphorylation and phosphotransfer to GacSD1, SDS-PAGE and autoradiography (GacSH1): between the H1 domain of GacS and the D1 domain of GacS | autophosphorylation, SDS-PAGE and autoradiography (LadSH1D1): LadSH1D1 and LadSH1D1D→A proteins were found in an autophosphorylated form
